Experimental data published in US8865741B2, “Aminoindane compounds and use thereof in treating pain” (Asana Biosciences, LLC, priority 2011, dated 2014).
Like-named read-outs stand apart in the source and are kept apart here.

Legend:
[1] = tested on: sodium channel in hTRPV1-N1E115 cells; assay: FLIPR membrane potential assay of sodium channel response in hTRPV1-N1E115 cells, with (47° C.) or without (25° C.) heat activation of hTRPV1; format: cell-based; settings: for hTRPV1-N1E Nav 0.1 mM (% inhibition) 25° C. / hTRPV1-N1E Nav 1 mM (% inhibition) 25° C.: 25° C. (no heat activation of hTRPV1); for hTRPV1-N1E Nav 0.1 mM (% inhibition) 47° C. / hTRPV1-N1E Nav 1 mM (% inhibition) 47° C.: 47° C. (heat activation of hTRPV1); for IC50: read-out: hTRPV1-N1E IC50 (μM) 47° C.
Source text: In one embodiment, a modified FLIPR® (Fluorometric Imaging Plate Reader) based assay system was developed which is capable of discriminating between non-specific versus hTRPV1-mediated entry of test compounds. Advantageously, the assay system utilizes heat activated opening of hTRPV1 channels followed by an assessment of internal sodium channel block. The assay allows a permanently charged compound to selectively enter through opened hTRPV1 channels and that compound's potency in inhibiting sodium channels from the cytoplasm side of the same cell can be assessed and quantified.
The assay is readily performed in multi-well assay plates into which cells in growth media are added and incubated under conditions which permit the formation of a confluent monolayer over a period of hours prior to the start of the assay. Conventional culture media and conditions may be utilized. Duplicate cell assay plates are prepared for each experiment.
The spent media from the cell seeded plates is removed on the day of the assay and replaced with Membrane potential Dye-Blue (Molecular Devices). The dye was prepared in assay buffer following manufacturer's instructions. The dye-loaded plate is incubated at room temperature (about 25° C.) for about 30 minutes in order to pre-load the cells with dye. Optionally, the cells may be loaded with the dye simultaneously with adding the test compounds.
The test compounds are diluted in the Assay Buffer and added to each well of a specific 384-well ‘compound plate’, which serves as a source plate for compound addition using the FLIPR® platform. The concentration of compounds in the compound-plate was adjusted to achieve the desired final concentration when added to the cells in the ‘cell-plate’. After completion of the dye incubation period, the dye loaded cell-plates and the compound source plates are inserted into the FLIPR® Tetra™ device with a 384 FLIPR® tip box (Molecular Devices, Inc.) according to manufacturer's instructions. The compounds are robotically added to the dye loaded cell-plates using software integral to the FLIPR® Tetra™ instrument.
Immediately following compound addition, hTRPV1 is activated, in one of the duplicate cell plates, by heating. Specifically, entire multi-well plate containing the compound-cells mixture is incubated at 47° C. for 10 minutes, after which they are returned to room temperature (about 25° C.) for a further 30 minutes. Heat activation of hTRPV1 was omitted from the replicate cell plate which was simply maintained at room temperature for the entire 40 minutes.
A membrane potential response is elicited in the dye- and compound-loaded cells by the addition of veratridine which is a known sodium channel ‘agonist’. As illustrated in an example herein, an agonist plate containing veratridine (Sigma) is prepared in advance and is inserted into suitable devices such as, e.g., the FLIPR® TETRA® device for a “2nd addition” as instructed by the manufacturer. The concentration of veratridine in the ‘agonist plate’ was adjusted to achieve a final concentration of 100 μM when added to the cells in the cell-plate. Final concentrations of veratridine greater or lesser than 100 μM may also be used but the signal measured by the FLIPR®^Tetra™ device or another suitable device may vary accordingly.
The exposure of the cells in the cell-plate to veratridine induces sodium channels in the cells to open and the resulting ion flux produces a membrane potential depolarization that is detected as a fluorescence signal by the FLIPR® ^Tetra™ Device. The activity of test compounds is determined by their ability to attenuate the veratridine-induced fluorescence signal, the most promising compounds are those that show an enhanced activity in the heat-activated cell plate over the non-heat-activated cell plate. […]

[2] = biological target: T1, human Nav1.5 sodium channel (Homo sapiens, UniProt Q14524); assay: Inhibition of sodium channel response in hNav1.5-HEK293 cells (FLIPR, veratridine); format: cell-based; settings: for IC50: average, read-out: HEK Nav 1.5 IC50 (μM) (AVG); for inhibition at 10 min, 0.5 mM / inhibition at 10 min, 1.5 mM: human, HEK-293 cells expressing human Nav1.5 (hNav1.5-HEK-293), pH 7.4; for inhibition at 10 min, 0.5 mM: read-out: HEK Nav 1.5 % inh. @ 0.5 mM; for inhibition at 10 min, 1.5 mM: read-out: HEK Nav 1.5 % inh. @ 1.5 mM
T1 construct: host or cells: HEK-293
T1 sequence (Q14524 whole entry): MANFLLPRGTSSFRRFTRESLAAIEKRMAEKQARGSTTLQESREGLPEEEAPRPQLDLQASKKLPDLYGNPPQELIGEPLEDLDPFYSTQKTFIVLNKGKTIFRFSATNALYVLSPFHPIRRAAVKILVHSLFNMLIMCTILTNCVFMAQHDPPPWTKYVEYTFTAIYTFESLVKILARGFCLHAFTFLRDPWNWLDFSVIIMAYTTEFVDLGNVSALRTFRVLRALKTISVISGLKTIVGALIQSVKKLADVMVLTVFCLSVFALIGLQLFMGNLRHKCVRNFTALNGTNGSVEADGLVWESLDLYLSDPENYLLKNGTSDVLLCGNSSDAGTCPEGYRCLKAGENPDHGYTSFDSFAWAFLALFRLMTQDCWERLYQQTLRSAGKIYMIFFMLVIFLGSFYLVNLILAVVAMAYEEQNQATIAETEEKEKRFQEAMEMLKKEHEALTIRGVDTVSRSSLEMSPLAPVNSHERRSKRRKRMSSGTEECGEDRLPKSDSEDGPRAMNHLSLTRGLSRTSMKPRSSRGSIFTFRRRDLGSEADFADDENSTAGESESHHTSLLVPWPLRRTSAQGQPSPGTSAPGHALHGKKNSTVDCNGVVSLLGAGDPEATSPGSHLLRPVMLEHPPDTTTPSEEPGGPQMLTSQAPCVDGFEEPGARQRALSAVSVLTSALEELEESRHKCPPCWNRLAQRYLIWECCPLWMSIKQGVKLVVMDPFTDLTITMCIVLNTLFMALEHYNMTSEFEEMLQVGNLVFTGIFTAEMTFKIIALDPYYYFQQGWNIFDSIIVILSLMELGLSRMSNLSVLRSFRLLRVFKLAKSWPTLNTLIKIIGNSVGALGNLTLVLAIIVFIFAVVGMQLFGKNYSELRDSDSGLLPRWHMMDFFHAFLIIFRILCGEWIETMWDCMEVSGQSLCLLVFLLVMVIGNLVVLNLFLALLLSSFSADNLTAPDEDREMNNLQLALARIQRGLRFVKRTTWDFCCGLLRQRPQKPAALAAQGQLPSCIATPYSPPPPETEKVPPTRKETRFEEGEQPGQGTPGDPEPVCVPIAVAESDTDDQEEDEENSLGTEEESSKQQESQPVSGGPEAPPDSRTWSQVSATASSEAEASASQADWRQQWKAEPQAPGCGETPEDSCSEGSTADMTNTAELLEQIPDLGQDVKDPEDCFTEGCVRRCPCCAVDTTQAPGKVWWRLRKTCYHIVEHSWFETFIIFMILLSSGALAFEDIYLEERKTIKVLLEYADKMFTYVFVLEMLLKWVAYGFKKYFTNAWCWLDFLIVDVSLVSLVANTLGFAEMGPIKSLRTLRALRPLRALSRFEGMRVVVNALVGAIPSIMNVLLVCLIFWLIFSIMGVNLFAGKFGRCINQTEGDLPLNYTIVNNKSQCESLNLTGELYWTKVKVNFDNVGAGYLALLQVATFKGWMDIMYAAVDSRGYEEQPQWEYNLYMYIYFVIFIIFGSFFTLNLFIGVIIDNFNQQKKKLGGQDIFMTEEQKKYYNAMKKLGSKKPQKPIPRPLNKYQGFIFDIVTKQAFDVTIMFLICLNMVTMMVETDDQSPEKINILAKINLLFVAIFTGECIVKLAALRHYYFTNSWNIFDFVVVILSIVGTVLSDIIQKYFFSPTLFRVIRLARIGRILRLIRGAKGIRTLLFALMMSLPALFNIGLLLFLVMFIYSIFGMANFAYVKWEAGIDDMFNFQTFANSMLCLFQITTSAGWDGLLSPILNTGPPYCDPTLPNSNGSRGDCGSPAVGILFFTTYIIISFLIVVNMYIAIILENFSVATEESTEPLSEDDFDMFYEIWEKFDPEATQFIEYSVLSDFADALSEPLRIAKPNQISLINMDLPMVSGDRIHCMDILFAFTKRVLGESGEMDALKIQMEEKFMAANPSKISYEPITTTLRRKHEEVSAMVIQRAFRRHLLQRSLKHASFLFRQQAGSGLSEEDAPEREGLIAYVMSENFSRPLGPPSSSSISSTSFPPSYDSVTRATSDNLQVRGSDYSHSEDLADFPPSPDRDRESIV
Description: C. Method for Assessing the Extent of Inhibition of Sodium Channel Response with Compounds in hNav1.5-HEK293 Cells.
The following assay was used to assess the tendency of the test compounds to block the dominant cardiac sodium channel isoform. Nav1.5 sodium channels are known to be permeable to quaternary sodium channel blockers such as QX-314 and, thus, the assay was performed in the absence of a chemical TRPV1 agonist.
The hNav1.5-HEK-293 cells (CreaCell, France, a human embryonic kidney cell line expressing the human Nav1.5 sodium channel) were cultured in Growth medium (containing 1×DMEM (Gibco)+10% FBS (PAA Gold)+2% Glutamine 100 mM (Gibco)+1% penicillin 10,000 U/mL streptomycin 10,000 μg/mL (Invitrogen)+1.2 mg/mL Geneticin G418 (Invitrogen)) in […] cell bind flasks (Corning). The following steps were followed exactly as mentioned. The spent medium was discarded and the cells rinsed once with PBS-1×. Accutase® (1-2 mL; PAA) solution was added. The plate was placed on a 37° C. warming incubator 3-5 minutes. As soon as cells are detached, 37° C. complete medium (9 mL) was added. The cell suspension was drawn into a sterile pipette and cells homogenized gently to dissociate cell aggregates. The cells were counted using a hemocytometer with Blue Trypan and then centrifuged 5 minutes at 400 g. The cells can be amplified or maintained by seeding […] in a T75 flask (final volume: 15 mL). 8000 cells in 50 μL Growth medium was added to each well of 384-well, clear bottomed, sterile poly-D-lysine coated plates with lid (Greiner-bio one) inside the laminar air-flow. The plates were incubated at 37° C. and 5% CO2 in a CO2 incubator (Thermo) for 48 hours.
On the day of the assay, cells were washed with Assay buffer, which was prepared using the components and amounts in Table 4. The pH was adjusted to 7.4 with NaOH, volume made up to 500 mL with Milli-Q® water.
Assay Buffer was added to the cells and incubated at rt (25° C.) for 10 minutes. The compounds were diluted in assay buffer. The compounds were added and incubated at rt (25° C.) for 10 minutes. Red FMP Dye (MDC) was added to the cells and the plate was incubated at rt (25° C.) for 30 minutes. Veratridine stock (20 mM; Sigma) was prepared in DMSO; veratridine (final concentration of 30 μM) in assay buffer was added to each well of the cell seeded plates in the FLIPR® system and read taken for 10 minutes. Table 5 provides data illustrating the sodium channel activity of the test compounds in response to the presence or absence of heat stimulation in cells expressing hTRPV1. The compounds were tested for differential activity at 25° C. and 47° C. and at two test concentrations. Compounds showing the most promising profiles were further evaluated for IC50 in the 47° C. assay, examples are shown in Table 5.

[3] = tested on: Male Sprague Dawley (SD) rats; assay: In vivo assay of mechanical nociception (rat pinch model, perisciatic injection); settings: for Average Time of Analgesia: perisciatic; for duration of anti-nociception effect: 100 μL injection volume, 0.5% compound with 2% lidocaine (Table 8)
[4] = test compound 0.5%, lidocaine 0%, total injection 200 μL
[5] = test compound 0.5%, lidocaine 2%, total injection 100 μL
[6] = test compound 0.5%, lidocaine 2%, total injection 200 μL

SMILES | hTRPV1-N1E Nav 0.1 mM (% inhibition) 25° C. [1] [%] | hTRPV1-N1E Nav 0.1 mM (% inhibition) 47° C. [1] | hTRPV1-N1E Nav 1 mM (% inhibition) 25° C. [1] | hTRPV1-N1E Nav 1 mM (% inhibition) 47° C. [1] | IC50 ([1]; 47° C., numeric values) [µM] | IC50 [2] [µM] | inhibition at 10 min, 0.5 mM [2] [%] | inhibition at 10 min, 1.5 mM [2] [%] | analgesic effects in the absence of lidocaine ([3]; absence of lidocaine) | Average Time of Analgesia ([3]; test compound 0.5%, lidocaine 0%, total injection 100 μL) [h] | Average Time of Analgesia [3, 4] [h] | Average Time of Analgesia [3, 5] [h] | Average Time of Analgesia [3, 6] [h] | hTRPV1-N1E Nav (% inhibition) 25° C., tested at 0.5 mM ([1]; 0.5 mM (stated in cell, column head 0.1 mM), 25° C.) [%] | hTRPV1-N1E Nav (% inhibition) 47° C., tested at 0.5 mM ([1]; 0.5 mM (stated in cell, column head 0.1 mM), 47° C.) | IC50 ([1]; 47° C., class symbols) [µM] | duration of anti-nociception effect [3] | Average Time of Analgesia ([3]; test compound 0.25%, lidocaine 0%, total injection 200 μL) [h] | Average Time of Analgesia ([3]; test compound 0.25%, lidocaine 1%, total injection 200 μL) [h]
C[N+]1(C)CCCCC1CN(c1ccccc1)C1Cc2ccccc2C1.[I-] (stereo not drawn) [Example 3, 1,1-dimethyl-2-[((indan-2-yl)(phenyl)amino)methyl]piperidinium iodide] | 16 | 67 (N = 2) % | 23 (N = 2) % | 60 (N = 2) % | 37 | 190 | 77.6 | 99.1 | analgesic effects of significant duration | 4 | 9 | 12 | >15 |  |  |  |  |  | 
C[N+]1(C)CCCC[C@@H]1CCN(c1ccccc1)C1Cc2ccccc2C1.[I-] [Example 10, (R)-1,1-Dimethyl-2-[2-((indan-2-yl)(phenyl)amino)ethyl]piperidinium iodide] |  |  | 6.5 (N = 2) % |  |  | 667 | 76.1 | 97.6 |  |  |  |  |  | 24 | 91 (N = 2, 0.5 mM) % | 10 to 100 |  |  | 
Cc1ccccc1N(CCC1CCCC[N+]1(C)C)C1Cc2ccccc2C1.[I-] (stereo not drawn) [Example 24, 1,1-dimethyl-2-[2-((indan-2-yl)(2-methylphenyl)amino)ethyl]piperidinium iodide] | 25.1 | 88.5 (N = 2) % | 57.9 (N = 2) % | 84.2 (N = 2) % |  |  |  |  |  |  | 12 | 32 | >168 |  |  | 1 to 10 | up to 32 hours | 4 | 24
CC[N+]1(CC)CCCCC1CCN(c1ccccc1F)C1Cc2ccccc2C1.[I-] (stereo not drawn) [Example 16, 1,1-Diethyl-2-[2-((2-fluorophenyl)(indan-2-yl)amino)ethyl]piperidinium iodide] | 0 | 92.9 (N = 2) % | Insoluble | Insoluble |  |  |  |  |  |  |  | 6 |  |  |  | 10 to 100 | up to 6 hours |  | 
C[N+]1(C)CCCCC1CCN(c1ccccc1F)C1Cc2ccccc2C1.[I-] (stereo not drawn) [Example 4, 1,1-dimethyl-2-[2-((2-fluorophenyl)(indan-2-yl)amino)ethyl]piperidinium iodide] | 0 | 94.7 (N = 3) % | 0 (N = 3) % | 67.0 (N = 3) % |  |  |  |  |  |  |  | 1 |  |  |  | 10 to 100 |  |  | 
CC[N+]1(CC)CCCCC1CCN(c1ccc(C)cc1)C1Cc2ccccc2C1.[I-] (stereo not drawn) [Example 23, 1,1-Diethyl-2-[2-((indan-2-yl)(4-methylphenyl)amino)ethyl]piperidinium iodide] | 19.7 | 89.6 (N = 2) % | Insoluble | Insoluble |  |  |  |  |  |  |  | 2 |  |  |  | 1 to 10 |  |  | 
C[N+]1(C)CCCC1CN(c1ccccc1)C1Cc2ccccc2C1.[I-] (stereo not drawn) [Example 8, 1,1-dimethyl-2-[((indan-2-yl)(phenyl)amino)methyl]pyrrolidinium iodide] | 6.5 | 22.7 (N = 2) % | 39.9 (N = 2) % | 69.5 (N = 2) % |  |  |  |  |  |  |  |  |  |  |  |  |  |  | 
C[N+]1(C)CCCC1CCN(c1ccccc1)C1Cc2ccccc2C1.[I-] (stereo not drawn) [Example 5, 1,1-dimethyl-2-[2-((indan-2-yl)(phenyl)amino)ethyl]pyrrolidinium iodide] | 21 | 50 (N = 2) % |  |  |  |  |  |  |  |  |  |  |  |  |  | 10 to 100 |  |  | 
